This note sets out measurements from patent US20010014345A1, “MATERIAL, METHOD AND APPARATUS FOR INHIBITING BACTERIAL GROWTH IN AN AQUEOUS MEDIUM” (priority 1995, published 2001).

What is called logP is the decadic logarithm of the partition coefficient of the neutral form, usually between octanol and water.

Molecules are shown by their SMILES. Where “and” joins values, the source holds several entries; their conditions need not be identical. Equal entries are not always repeated. Where two headings read alike, the source gives them in different places.

The subject of data set [1] is Pseudomonas aeruginosa. Nature of the data set: Biocide efficiency (B.E.) of immobilised biocides in recirculating column test. It is filed as cell-based.
Data set [2] in a line: physchem.
For data set [3], the system named is Pseudomonas aeruginosa. Nature of the data set: Recirculating column test of immobilised biocide (active beads), viable bacterial counts / growth curve. It is filed as cell-based. The conditions noted are these: active beads on Amberlite XAD-4 or XAD-2, 10x1 cm column, after 24 hours, FIG. 2.
Data set [4] can be described thus: Presence or absence of free biocide in filter-sterilised culture after contact with active beads (MS and/or HPLC; leaching). The data set is classed as physicochemical.
Data set [5] can be described thus: Partition coefficients between octanol and water by UV/visible absorption.
The mark [6] stands for this setting: column length 10 cm, biocide immobilised on Amberlite XAD-4, 24 h, 30° C., 13.5 ml/min.

Consider `O=[N+]([O-])C(Br)(CO)CO` [Bronopol], for which the “B.E. (t-24 h)” value in data set [1] (setting [6]) is recorded as −0.80. Moreover, the logP in data set [2] was 0.18.
For the compound `CCCCCCCCn1sc2ccccc2c1=O` [Compound 1, 2-n-octylbenzoisothiazolin-3-one], the “bacterial population versus blank bead controls” value in data set [3] was “significantly lower”. Besides, the “B.E. (t-24 h)” value in data set [1] (setting [6]) is given as 0.48.
Take `CCCCCCCCCCCCCCCCn1sc2ccccc2c1=O` [Compound 2, 2-n-hexadecyl-benzoisothiazolin-3-one]: the “B.E. (t-24 h)” value in data set [1] (column length 10 cm, biocide immobilised on Amberlite XAD-2, 24 h, 30° C., 13.5 ml/min) is 0.84; in data set [1] (setting [6]), 0.68 and 1.02 and 0.82 and 0.91; in data set [1] (column length 20 cm, biocide immobilised on Amberlite XAD-4, 24 h) it was 0.99 and 0.64 and 0.75; in data set [1] (column length 30 cm, biocide immobilised on Amberlite XAD-4, 24 h), 0.64 and 0.86; in data set [1] (column length 40 cm, biocide immobilised on Amberlite XAD-4, 24 h) it was 0.90.
Regarding `CCCCCCCCCCCCCCCCCCn1sc(Cl)cc1=O` [Compound 4, 5-chloro-2-n-octadecyl-isothiazolin-3-one], the “B.E. (t-24 h)” value in data set [1] was 0.70 and 0.82 and 0.73 and 0.99 and 0.98.
As to `CCCCCCCCn1sccc1=O` [Compound 5, 2-n-octyl-isothiazolin-3-one], the “B.E. (t-24 h)” value in data set [1] was 0.80 and 0.60. Besides, the “Present (MS): free biocide in solution” value in data set [4] is “trace”.
In the case of `CCCCCCCCCCCC[N+](C)(C)CCOc1ccccc1` [Domiphen], in data set [2], the logP was 1.7.
As to `Cn1sc2c(c1=O)CCC2` [Promexal], the “P (partition coefficient between octanol and water)” value in data set [5] (25° C., UV/visible absorption) is given as “˜4.5”. Besides, in data set [5] (n-octanol/water), the logP was 0.6.
In turn, `O=c1[nH]sc2ccccc12` [Proxel] had a logP in data set [2] of -1.3.
